Reference: US20100160266A1, “ORGANIC COMPOUNDS” (NABRIVA TH[…], priority 2005, published 2010)

Test system: anaerobic bacteria
Assay: in vitro acne assays: MIC by agar dilution technique on Wilkins-Chalgren Agar (NCCLS guidelines)
Format: cell-based
Conditions: compared with the same pleuromutilin in the form of a hydrochloride
Protocol: E.g. in commercially available in vitro acne assays (the determination of the minimal inhibitory concentration (MIC) is performed according to the approved NCCLS guidelines^1) by agar dilution technique on Wilkins-Chalgren Agar—1) National committee for clinical laboratory standards. Methods for Antimicrobial susceptibility testing of anaerobic bacteria. 1993.

Question: How did the “activity in in vitro acne assays (minimal inhibitory concentration, MIC)” value turn out when C=CC1(C)CC(OC(=O)CSC2CCCN(C(=O)C(N)C(C)C)C2)C2(C)C(C)CCC3(CCC(=O)C32)C(C)C1O [Example 1, 14-O—[(N—((R)-Valyl)-piperidine-3(S)-yl)-sulfanylacetyl)-mutilin] was run?
Answer: Its value is “remarkably better activity”.
